AUC and IC50 data for 48 molecules are collected here from patent publication US8450355B2, “Compounds for the treatment of inflammatory diseases” (Merck Sharp & Dohme Corp., priority 2008, dated 2013).

Some results are limits rather than exact numbers.

System in the first data set: not listed separately
In words: Area under the curve determination of plasma levels in rats (rapid rat AUC). It counts as in vivo. Particulars: Table A, oral, 10 mg/kg, blood 0.5-6 h post-dosing, read-out: RR AUC. The method, then:
Area Under the Curve Determinations of Plasma Levels in Rats (rrAUC)
To gain insight into the pharmacokinetic properties of the compounds of formula (I), plasma levels of the compounds in rats were determined according to the protocol described in Korfmacher, W. A.; Cox, K. A.; Ng, K. J.; Veals, J.; Hsieh, Y.; Wainhaus, S.; Broske, L.; Prelusky, D.; Nomeir, A.; White, R. E. Rapid Commun. Mass Spectrom, 2001, 15, 335, Briefly, rats, after an overnight fast, were dosed orally with the test compound at a dose of 10 mg/kg in a 5 mL/kg dose volume. Blood was collected at 0.5, 1, 2, 3, 4, and 6 h post-dosing. Mass spectrometry using high performance liquid chromatography was used to identify and measure the concentrations of the test compounds in the plasma at the various time points. The parent ion of each test compound was used to identify and quantitate the compounds in plasma.
On to `COC(=O)[C@@](CN1Cc2ccc(OC)c(F)c2C1=O)(NC(N)=O)c1cc2nc(Cl)c(F)cc2o1` [Compound 1304], for which the AUC was 0.113 µM·h.

Staying with this data set, now noted: Table B, oral, 10 mg/kg, blood 0.5-6 h post-dosing, read-out: RR AUC.
Regarding `COc1ccc2c(c1)C(=O)N(C[C@@]1(c3cc4c5c(ccc4o3)C3(CC5)NC(=O)NC3=O)NC(=O)NC1=O)C2` (some centres unmarked) [Compound 2210], the exposure (AUC) is 0.321 µM·h.

As to `COc1ccc2c(c1)C(=O)N(C[C@@]1(c3cc4c5c(ccc4o3)C3(CCC5)NC(=O)NC3=O)NC(=O)NC1=O)C2` (some centres unmarked) [Compound 2211], the area under the curve (AUC) stood at 0.055 µM·h. Turning to `COc1ccc2c(c1)C(=O)N(C[C@@]1(c3cc4ccc5c(c4o3)CCC53NC(=O)NC3=O)NC(=O)NC1=O)C2` (some centres unmarked) [Compound 2214], the area under the curve (AUC) worked out at 0.128 µM·h.

Regarding `COc1ccc2c(c1F)C(=O)N(C[C@@]1(c3cc4c5c(ccc4o3)C3(CC5)NC(=O)NC3=O)NC(=O)NC1=O)C2` (some centres unmarked) [Compound 2216], the exposure (AUC) worked out at 1.6 µM·h.

The next data set relates to TNF-α production from human whole blood. The data set can be described thus: Inhibition of TNF-α production from human whole blood (hWBA). It counts as cell-based. Particulars: Table A; human whole blood diluted 1:1, LPS stimulation, 3.5 h, TNF-α by ELISA. Here is the method:
Assay for Inhibition of TNF-α Production from Human Whole Blood (hWBA)
Human whole blood was diluted 1:1 with serum free medium (RPMI, L-glutamine, Pen-Strep, HEPES) and incubated with a test compound in a final volume of 360 μL for 1 h at 37° C. Forty microliters of LPS (10 μg/mL) was then added. Supernatant was collected after 3.5 h incubation and the concentration of TNF-α was determined by ELISA (R&D Systems). The concentration of the test compound which inhibits 50% of the amount of TNF-α from the control untreated control was determined.
For `COc1ccc2c(c1)C(=O)N(C[C@@](N)(C(=O)O)c1cc3cnccc3o1)C2` [Compound 1120A], the IC50 was greater than 10000 nM. Turning to `COc1ccc2c(c1)C(=O)N(C[C@@](O)(C(=O)O)c1cc3cnccc3[nH]1)C2` [Compound 1120B], the half-inhibitory concentration (IC50) is greater than 10000 nM. As to `COc1c(F)cc2c(c1F)C(=O)N(CC1(C#Cc3ccc(C4(CN)NC(=O)NC4=O)cc3)NC(=O)NC1=O)C2` (centres unmarked) [Compound 1150], the concentration for half-maximal inhibition (IC50) is greater than 10000 nM. Turning to `COc1c(F)cc2c(c1F)C(=O)N(C[C@@]1(c3cc4cnccc4o3)NC(=O)NC1=O)C2` [Compound 1160], half-maximal inhibition (IC50) was put at 7140 nM. `COc1c(F)cc2c(c1F)C(=O)N(CC1(c3cc4cnccc4o3)NC(=O)NC1=O)C2` (centres unmarked) [Compound 1165] registered an IC50 greater than 10000 nM. Still for that read-out and setting: for `COc1c(F)cc2c(c1F)C(=O)N(CC1(c3cc4ncccc4o3)NC(=O)NC1=O)C2` (centres unmarked) [Compound 1170] the value was greater than 10000 nM; for `COc1c(F)cc2c(c1F)C(=O)N(C[C@@]1(c3cc4ncccc4o3)NC(=O)NC1=O)C2` [Compound 1175], 7120 nM.

Molecule `COc1c(F)cc2c(c1F)C(=O)N(C[C@@]1(C#Cc3ccc(C(N)=O)cc3)NC(=O)NC1=O)C2` [Compound 1180] gave a half-inhibitory concentration (IC50) of 1430 nM.

`COc1c(F)cc2c(c1F)C(=O)N(CC1(c3cc4nc(N5CCC(N(C)C)CC5)ccc4o3)NC(=O)NC1=O)C2` (centres unmarked) [Compound 1190] registered an IC50 greater than 10000 nM. Turning to `COC(=O)[C@@](CN1Cc2ccc(OC)c(F)c2C1=O)(NC(N)=O)c1cc2nc(Cl)c(F)cc2o1` [Compound 1304], 3100 nM corresponded to half-maximal inhibition (IC50). This counts as single-digit micromolar.

In the case of `COc1ccc2c(c1)C(=O)N(C[C@@]1(c3cc4nc(C(=N)NO)ccc4o3)NC(=O)NC1=O)C2` [Compound 1500], the 50% inhibitory concentration (IC50) amounted to 640 nM. `CCN1CCN(C(=N)c2ccc3oc([C@]4(CN5Cc6ccc(OC)cc6C5=O)NC(=O)NC4=O)cc3n2)CC1` [Compound 1501] returned a half-maximal inhibitory concentration (IC50) of 1890 nM. `COc1ccc2c(c1)C(=O)N(C[C@@]1(c3cc4nc(C(=N)N5CCCN(C)CC5)ccc4o3)NC(=O)NC1=O)C2` [Compound 1502] gave a half-maximal inhibitory concentration (IC50) of 1820 nM. As to `Cc1cc2cc3c(c(F)c2o1)C(=O)N(CC1(c2cc4nc(-c5cn[nH]c5)ccc4o2)NC(=O)NC1=O)C3` (centres unmarked) [Compound 1700], the midpoint of inhibition, the IC50, lay at 501 nM. `Cc1cc2c3c(ccc2o1)CN(C[C@@]1(c2cc4ncccc4o2)NC(=O)NC1=O)C3=O` [Compound 1701] showed an IC50 greater than 10000 nM. Consider `COCc1cc2c3c(ccc2o1)CN(C[C@@]1(c2cc4ncccc4o2)NC(=O)NC1=O)C3=O` [Compound 1702], for which the concentration for half-maximal inhibition (IC50) is greater than 10000 nM. With `O=C1NC(=O)[C@](CN2Cc3ccc4oc(Cc5ccccc5)cc4c3C2=O)(c2cc3ncccc3o2)N1` [Compound 1703], the IC50 was greater than 10000 nM.

For the molecule `O=C1NC(=O)[C@](CN2Cc3ccc4oc(C5CC5)cc4c3C2=O)(c2cc3ncccc3o2)N1` [Compound 1704], the half-maximal inhibitory concentration (IC50) is greater than 10000 nM. For the molecule `COc1ccc2c(c1)C(=O)N(C[C@@]1(C(=O)Cc3nc(Nc4cn[nH]c4)ccc3O)NC(=O)NC1=O)C2` [Compound 1705], the IC50 turned out to be 292 nM. In other words, the sub-micromolar range.

As to `CCN1CCCN(c2ccc(O)c(CC(=O)[C@]3(CN4Cc5ccc(OC)c(F)c5C4=O)NC(=O)NC3=O)n2)CC1` [Compound 1707], the concentration for half-maximal inhibition (IC50) is 1570 nM.

The data set is the same for the next values; noted with them: Table B; human whole blood diluted 1:1, LPS stimulation, 3.5 h, TNF-α by ELISA.
In the case of `COc1ccc2c(c1)C(=O)N(C[C@@]1(c3cc4nc(C(=N)N)ccc4o3)NC(=O)NC1=O)C2` [Compound 2200], the half-maximal inhibitory concentration (IC50) turned out to be 307 nM. Same read-out and setting: for `COc1c(Cl)cc2c(c1Cl)C(=O)N(C[C@@]1(c3cc4cnccc4o3)NC(=O)NC1=O)C2` [Compound 2201] the value was no less than 10000 nM; for `COc1ccc2c(c1)CCN(C[C@@]1(c3cc4c5c(ccc4o3)C3(CC5)NC(=O)NC3=O)NC(=O)NC1=O)C2=O` (some centres unmarked) [Compound 2203], 3560 nM; for `COc1ccc2c(c1)C(=O)N(C[C@@]1(c3cc4cc(/C(=N\O)N(C)CCN(C)C)ccc4o3)NC(=O)NC1=O)C2` [Compound 2206], 384 nM. Molecule `CCN(CC)CCN(C)/C(=N/O)c1ccc2oc([C@]3(CN4Cc5ccc(OC)cc5C4=O)NC(=O)NC3=O)cc2c1` [Compound 2207] registered an IC50 of 308 nM. This IC50 and that of the molecule before are within 1.5-fold of each other. Take `CCN(CC)CCN(CC)/C(=N/O)c1ccc2oc([C@]3(CN4Cc5ccc(OC)cc5C4=O)NC(=O)NC3=O)cc2c1` [Compound 2208]: the IC50 amounted to 281 nM. This IC50 and that of the molecule before are within 1.5-fold of each other.

Consider `COc1ccc2c(c1)C(=O)N(C[C@@]1(c3cc4cc(NS(N)(=O)=O)ccc4o3)NC(=O)NC1=O)C2` [Compound 2209], for which the concentration for half-maximal inhibition (IC50) was found to be 315 nM. Same read-out and setting: for `COc1ccc2c(c1)C(=O)N(C[C@@]1(c3cc4c5c(ccc4o3)C3(CC5)NC(=O)NC3=O)NC(=O)NC1=O)C2` (some centres unmarked) [Compound 2210] the value was 187 nM; for `COc1ccc2c(c1)C(=O)N(C[C@@]1(c3cc4c5c(ccc4o3)C3(CCC5)NC(=O)NC3=O)NC(=O)NC1=O)C2` (some centres unmarked) [Compound 2211], 570 nM; for `COc1ccc2c(c1)C(=O)N(C[C@@]1(c3cc4c5c(ccc4o3)C3(CC5)CNC(=O)N3)NC(=O)NC1=O)C2` (some centres unmarked) [Compound 2213], 335 nM. The same measure, in the same setting: for `COc1ccc2c(c1)C(=O)N(C[C@@]1(c3cc4ccc5c(c4o3)CCC53NC(=O)NC3=O)NC(=O)NC1=O)C2` (some centres unmarked) [Compound 2214] the value was 1010 nM; for `COc1ccc2c(c1)C(=O)N(C[C@@]1(c3cc4ccc5c(c4o3)CCC53CNC(=O)N3)NC(=O)NC1=O)C2` (some centres unmarked) [Compound 2215], 628 nM. In turn, `COc1ccc2c(c1F)C(=O)N(C[C@@]1(c3cc4c5c(ccc4o3)C3(CC5)NC(=O)NC3=O)NC(=O)NC1=O)C2` (some centres unmarked) [Compound 2216] registered an IC50 of 145 nM. For the molecule `COc1ccc2c(c1)CCN(C[C@@]1(c3cc4c5c(ccc4o3)CNC5=O)NC(=O)NC1=O)C2=O` [Compound 2217], the 50% inhibitory concentration (IC50) came out at 1940 nM.

`COc1ccc2c(c1)CCN(C[C@@]1(c3cc4nc(-c5cn[nH]c5)ccc4o3)NC(=O)NC1=O)C2=O` [Compound 2218] came in with an IC50 of 284 nM. As for `COc1ccc2c(c1)CCN(C[C@@]1(c3cc4cnccc4o3)NC(=O)NC1=O)C2=O` [Compound 2219], the IC50 was found to be 1370 nM.

`COc1ccc2c(c1)C(=O)N(C[C@@]1(c3cc4c5c(ccc4o3)CCC53NC(=O)NC3=O)NC(=O)NC1=O)C2` (some centres unmarked) [Compound 2223] had an IC50 of 1000 nM. The IC50 values of the last two molecules are within 1.5-fold of each other. Same read-out and setting: for `CCCN(C)C(=NO)c1ccc(C#C[C@]2(CN3Cc4ccc(OC)cc4C3=O)NC(=O)NC2=O)cc1` [Compound 2224] the value was 239 nM. Turning to `COc1ccc2c(c1)C(=O)N(C[C@@]1(C#Cc3ccc(C(=NO)N(C)C)s3)NC(=O)NC1=O)C2` [Compound 2227], the concentration for half-maximal inhibition (IC50) came to 813 nM. Against the preceding molecule, the IC50 is about 3.4-fold higher. The same measure, in the same setting: for `COc1ccc2c(c1)C(=O)N(C[C@@]1(C#Cc3ccc(C(=NO)N(C)CCN(C)C)cc3)NC(=O)NC1=O)C2` [Compound 2228] the value was 91 nM; for `CCN(CC)CCN(C)C(=NO)c1ccc(C#C[C@]2(CN3Cc4ccc(OC)cc4C3=O)NC(=O)NC2=O)cc1` [Compound 2229], 96 nM; for `COc1ccc2c(c1)C(=O)N(C[C@@]1(C#Cc3ccc(C(=O)NS(N)(=O)=O)cc3)NC(=O)NC1=O)C2` [Compound 2230], 434 nM. On to `COc1ccc2c(c1)C(=O)N(C[C@@]1(C#Cc3ccc(C(=NO)N(C)C)cc3)NC(=O)NC1=O)C2` [Compound 2231], for which the IC50 is 152 nM.

`CCN(CC)C(=NO)c1ccc(C#C[C@]2(CN3Cc4ccc(OC)cc4C3=O)NC(=O)NC2=O)cc1` [Compound 2234] came in with an IC50 of 205 nM. Still for that read-out and setting: for `COc1ccc2c(c1)C(=O)N(C[C@@]1(C#Cc3ccc(C(C(N)=O)N4CCCN(C(=O)OC(C)(C)C)CC4)cc3)NC(=O)NC1=O)C2` (some centres unmarked) [Compound 2237] the value was 1180 nM; for `COc1ccc2c(c1)C(=O)N(C[C@@]1(C#Cc3ccc(C(C(=O)O)N4CCCN(C(=O)OC(C)(C)C)CC4)cc3)NC(=O)NC1=O)C2` (some centres unmarked) [Compound 2238], 1020 nM. Still for that read-out and setting: for `COc1ccc2c(c1)C(=O)N(C[C@@]1(C#Cc3ccc(NC(=S)NCCN4CCOCC4)cc3)NC(=O)NC1=O)C2` [Compound 2239] the value was 267 nM. On the same count and under the same terms, for `COc1ccc2c(c1)C(=O)N(C[C@@]1(C(=O)Cc3nc(NC4CCN(C)CC4)ccc3O)NC(=O)NC1=O)C2` [Compound 2241] the value was 1270 nM.

What is called AUC is concentration integrated over time. For orientation: IC50 means the concentration that inhibits the measured activity by half. Read a high IC50 as weaker potency in that assay.
